The values below come from publication PMC8704709, “Improved Anticancer Activities of a New Pentafluorothio-Substituted Vorinostat-Type Histone Deacetylase Inhibitor” (Pharmaceuticals, 2021).

Common to all, as to type: cell-based, human
For experiment [1], the system named is caspase-3 activity in Hep-G2 cells. Kind of experiment: Apoptosis-specific caspase-3 activation (AC-DEVD-AMC cleavage). Conditions: 24 h treatment, 1–10 µM. As to the method:
(§1) Changes in caspase-3 activity were measured by the cleavage of the fluorogenic substrate AC-DEVD-AMC (EMD Millipore, Billerica, MA, USA), as described previously. […] Subsequently, the lysates were incubated for 1 h at 37 °C with a substrate solution containing 20 μg/mL AC-DEVD-AMC, 20 mM HEPES, 10% glycerol and 2 mM DTT at pH 7.5.

In experiment [2] the test system is caspase-3 activity in DU145 cells. Described as above. Conditions: 24 h treatment, 1–10 µM. Here is the method:
as §1

Experiment [3] relates to DU145 cells. Kind of experiment: Western blot in DU145 cells (acetyl-H3, PARP, EGFR, P-mTOR). Here is the method:
Western blots were performed as described earlier. Cells were seeded in 100 mm petri dishes, grown to almost confluency, treated for 24 h, washed and frozen, followed by lysis with RIPA Buffer, added with one cOmplete™ Mini protease Inhibitor tablet/10 mL (Roche), and quantification with Pierce^TM BCA Protein Assay Kit (Thermo Fisher Scientific). Thereafter protein levels were normalized to untreated controls so equal protein loading of 20 µg/lane. Laemmli Buffer and β-mercaptoethanol were added before probes were desaturated at 96 °C for 10 min. First, 7.5% or 12% SDS gels (Biorad, Munich, Germany) were loaded with proteins and electrophoresis was done. Thereafter, proteins were transferred to activated polyvinylidene difluoride membranes (PVDF) by electroblotting. Finally, the membranes were blocked with 1% BSA and incubated with primary antibodies over night at 4 °C.
Blots were washed three times with 1% TBS-Tween and incubated with anti-mouse or anti-rabbit peroxidase-coupled anti-IgG secondary antibodies (1:5000–1:10,000) at room temperature for 60 min. Subsequently, antibody bondage was illustrated using Clarity and Clarity Max ECL Western Blotting Substrates (Biorad, Munich, Germany) for detection and Celvin-S developer (Biostep, software SnapAndGo Vs 1.8.1) for development. […] Values were normalized to β-actin expression, which served as a loading control and compared to untreated control expressions which was set at 1. The mean ± SEM of the relative values to control are illustrated with Graph Pad Prism 8.
(In western blotting, separated proteins are transferred to a membrane and probed.)

Turning to `O=C(CCCCCCC(=O)Nc1ccc(S(F)(F)(F)(F)F)cc1)NO` [SF5-SAHA], the caspase-3 activation in experiment [1] is 5–6 times of the activity of untreated cells. Moreover, the caspase-3 activation in experiment [2] is 5–6 times of the activity of untreated cells. In addition, in experiment [3], the “phosphorylated mTOR (P-mTOR) level” value was “reduced the level of phosphorylated (activated) mTOR”. Besides, in experiment [3] (24 h), the EGFR protein expression entry was “significant downregulation of EGFR protein expression”, the PARP cleavage entry is reported as “detection of PARP cleavage in treated DU145 cells” and the “acetylated histone H3 level” value is listed as “dose-dependent rise of H3 acetylation”.
